Structures can show the parent of a compound that is named as a salt.
target: TrkA (Homo sapiens (Human), UniProt P04629); test: TrkA Omnia Assay; type: biochemical; conditions: averaged IC50; 20 nM enzyme, 500 μM ATP, 10 μM peptide substrate
How it was run: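 Recombinant TrkA (20 nM) preincubated 10 min at ambient temperature with compound, then Omnia Tyr Peptide #4 (10 μM) and ATP (500 μM) added in 25 mM MOPS pH 7.5, 5 mM MgCl2, 0.005% Triton X-100. Fluorescence (ex 360/em 485 nm) followed continuously for 70 min; IC50 from initial rates by 4- or 5-parameter logistic fit.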

Sequence of TrkA (P04629 33-796): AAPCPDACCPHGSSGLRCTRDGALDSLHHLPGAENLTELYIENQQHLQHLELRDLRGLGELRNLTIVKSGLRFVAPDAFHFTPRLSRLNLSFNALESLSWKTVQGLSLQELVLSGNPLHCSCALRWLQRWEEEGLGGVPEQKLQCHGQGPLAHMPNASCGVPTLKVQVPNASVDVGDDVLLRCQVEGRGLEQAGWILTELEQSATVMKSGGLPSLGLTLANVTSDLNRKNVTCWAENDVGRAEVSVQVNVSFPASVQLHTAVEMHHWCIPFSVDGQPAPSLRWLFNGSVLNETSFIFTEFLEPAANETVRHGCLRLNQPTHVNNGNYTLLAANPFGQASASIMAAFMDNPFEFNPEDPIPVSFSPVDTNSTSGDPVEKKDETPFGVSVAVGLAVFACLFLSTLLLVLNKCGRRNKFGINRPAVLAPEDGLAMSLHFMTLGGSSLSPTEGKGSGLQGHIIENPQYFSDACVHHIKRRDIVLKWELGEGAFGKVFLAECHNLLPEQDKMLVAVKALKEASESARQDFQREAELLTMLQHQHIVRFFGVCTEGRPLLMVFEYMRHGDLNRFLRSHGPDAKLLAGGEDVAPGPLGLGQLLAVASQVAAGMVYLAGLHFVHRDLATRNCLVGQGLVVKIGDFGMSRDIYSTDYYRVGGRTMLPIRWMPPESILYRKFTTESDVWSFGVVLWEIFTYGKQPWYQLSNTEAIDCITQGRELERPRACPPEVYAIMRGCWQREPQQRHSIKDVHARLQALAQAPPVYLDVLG

Row | SMILES | IC50
1 | CCOc1nn(-c2ccccc2)c(NC(=O)N[C@@H]2CN(CCOC)C[C@H]2c2cc(F)cc(F)c2)c1C [Example 138, 1-((3S,4R)-4-(3,5-difluorophenyl)-1-(2-methoxyethyl)pyrrolidin-3-yl)-3-(3-ethoxy-4-methyl-1-phenyl-1H-pyrazol-5-yl)urea] | < 100 nM
2 | COCCN1C[C@@H](NC(=O)Nc2c(C)c(OCCF)nn2-c2ccccc2)[C@H](c2ccc(F)c(F)c2)C1 [Example 144, 1-((3S,4R)-4-(3,4-difluorophenyl)-1-(2-methoxyethyl)pyrrolidin-3-yl)-3-(3-(2-fluoro-ethoxy)-4-methyl-1-phenyl-1H-pyrazol-5-yl)urea] | < 100 nM
3 | CCOc1cc(NC(=O)N[C@@H]2CN(CCOC)C[C@H]2c2ccc(F)c(F)c2)n(-c2ccccc2)n1 [Example 146, 1-((3S,4R)-4-(3,4-difluorophenyl)-1-(2-methoxyethyl)pyrrolidin-3-yl)-3-(3-ethoxy-1-phenyl-1H-pyrazol-5-yl)urea] | < 100 nM
4 | CCOc1nn(-c2ccccc2)c(NC(=O)N[C@@H]2CN(CCOC)C[C@H]2c2ccc(F)cc2)c1C [Example 147, 1-(3-ethoxy-4-methyl-1-phenyl-1H-pyrazol-5-yl)-3-((3S,4R)-4-(4-fluorophenyl)-1-(2-methoxyethyl)pyrrolidin-3-yl)urea] | < 100 nM
5 | CCOc1nn(-c2ccccc2)c(NC(=O)N[C@@H]2CN(CCOC)C[C@H]2c2cccc(F)c2)c1C [Example 148, 1-(3-ethoxy-4-methyl-1-phenyl-1H-pyrazol-5-yl)-3-((3S,4R)-4-(3-fluorophenyl)-1-(2-methoxyethyl)pyrrolidin-3-yl)urea] | < 100 nM
6 | COCCN1C[C@@H](NC(=O)Nc2c(C)c(OCCO)nn2-c2ccccc2)[C@H](c2cc(F)cc(F)c2)C1 [Example 149, 1-((3S,4R)-4-(3,5-difluorophenyl)-1-(2-methoxyethyl)pyrrolidin-3-yl)-3-(3-(2-hydroxy-ethoxy)-4-methyl-1-phenyl-1H-pyrazol-5-yl)urea] | < 100 nM
7 | COCCN1C[C@@H](NC(=O)Nc2cc(-c3cnc(C)cn3)nn2C)[C@H](c2ccc(F)c(F)c2)C1 [Example 152, 1-((3S,4R)-4-(3,4-difluorophenyl)-1-(2-methoxyethyl)pyrrolidin-3-yl)-3-(1-methyl-3-(5-methylpyrazin-2-yl)-1H-pyrazol-5-yl)urea] | < 100 nM
8 | COCCN1C[C@@H](NC(=O)Nc2c(C)c(-c3cnc(C)cn3)nn2C)[C@H](c2ccc(F)c(F)c2)C1 [Example 153, 1-((3S,4R)-4-(3,4-difluorophenyl)-1-(2-methoxyethyl)pyrrolidin-3-yl)-3-(1,4-dimethyl-3-(5-methylpyrazin-2-yl)-1H-pyrazol-5-yl) urea] | 100 to 1000 nM
9 | CCOC(=O)c1cnn(-c2ccccc2)c1NC(=O)N[C@@H]1CN(CCOC)C[C@H]1c1ccc(F)c(F)c1 [Example 154, ethyl 5-(3-((3S,4R)-4-(3,4-difluorophenyl)-1-(2-methoxyethyl)pyrrolidin-3-yl)ureido)-1-phenyl-1H-pyrazole-4-carboxylate] | 1000 to 10000 nM
10 | COCCN1C[C@@H](NC(=O)Nc2cc(-c3cnccn3)nn2C)[C@H](c2ccc(F)c(F)c2)C1 [Example 155, 1-((3S,4R)-4-(3,4-difluorophenyl)-1-(2-methoxyethyl)pyrrolidin-3-yl)-3-(1-methyl-3-(pyrazin-2-yl)-1H-pyrazol-5-yl)urea] | < 100 nM
11 | COCCN1C[C@@H](NC(=O)Nc2c3c(nn2-c2ccccc2)CNC3)[C@H](c2ccccc2)C1 [Example 158, 1-((3S,4R)-1-(2-methoxyethyl)-4-phenylpyrrolidin-3-yl)-3-(2-phenyl-2,4,5,6-tetrahydropyrrolo[3,4-c]pyrazol-3-yl)urea dihydrochloride] | 1000 to 10000 nM
12 | COCCN1C[C@@H](NC(=O)Nc2c3c(nn2-c2ccccc2)CN(C(C)=O)C3)[C@H](c2ccccc2)C1 [Example 159, 1-(5-acetyl-2-phenyl-2,4,5,6-tetrahydropyrrolo[3,4-c]pyrazol-3-yl)-3-((3S,4R)-1-(2-methoxyethyl)-4-phenylpyrrolidin-3-yl)urea] | 100 to 1000 nM
13 | COCCN1C[C@@H](NC(=O)Nc2c(CO)c(COC)nn2-c2ccccc2)[C@H](c2ccc(F)c(F)c2)C1 [Example 160, 1-((3S,4R)-4-(3,4-difluorophenyl)-1-(2-methoxyethyl)pyrrolidin-3-yl)-3-(4-(hydroxymethyl)-3-(methoxymethyl)-1-phenyl-1H-pyrazol-5-yl)urea] | 100 to 1000 nM
14 | COCCN1C[C@@H](NC(=O)Nc2cc(-c3ccc(C(=O)O)cc3)nn2C)[C@H](c2ccc(F)c(F)c2)C1 [Example 161, 4-(5-(3-((3S,4R)-4-(3,4-difluorophenyl)-1-(2-methoxyethyl)pyrrolidin-3-yl)ureido)-1-methyl-1H-pyrazol-3-yl)benzoic acid] | < 100 nM
15 | COCCN1C[C@@H](NC(=O)Nc2cc(-c3ccc(C(N)=O)cc3)nn2C)[C@H](c2ccc(F)c(F)c2)C1 [Example 162, 4-(5-(3-((3S,4R)-4-(3,4-difluorophenyl)-1-(2-methoxyethyl)pyrrolidin-3-yl)ureido)-1-methyl-1H-pyrazol-3-yl)benzamide] | < 100 nM
16 | COCCN1C[C@@H](NC(=O)Nc2c(F)c(C)nn2-c2ccccc2)[C@H](c2ccc(F)c(F)c2)C1 [Example 167, 1-((3S,4R)-4-(3,4-difluorophenyl)-1-(2-methoxyethyl)pyrrolidin-3-yl)-3-(4-fluoro-3-methyl-1-phenyl-1H-pyrazol-5-yl)urea] | < 100 nM
17 | COCCN1C[C@@H](NC(=O)Nc2c(F)c(-c3ccccc3)nn2C)[C@H](c2ccc(F)c(F)c2)C1 [Example 168, 1-((3S,4R)-4-(3,4-difluorophenyl)-1-(2-methoxyethyl)pyrrolidin-3-yl)-3-(4-fluoro-1-methyl-3-phenyl-1H-pyrazol-5-yl)urea] | < 100 nM

Results, then the compound that gave them:

Row | IC50 | SMILES
18 | < 100 nM | CCOc1nn(-c2ccccc2)c(NC(=O)N[C@@H]2CN(CCOC)C[C@H]2c2ccccc2)c1C [Example 139]
19 | < 100 nM | COCCN1C[C@@H](NC(=O)Nc2c(C)c(OC)nn2-c2ccccc2)[C@H](c2ccc(F)c(F)c2)C1 [Example 140, 1-((3S,4R)-4-(3,4-difluorophenyl)-1-(2-methoxyethyl)pyrrolidin-3-yl)-3-(3-methoxy-4-methyl-1-phenyl-1H-pyrazol-5-yl)urea]
20 | < 100 nM | COCCN1C[C@@H](NC(=O)Nc2c(C)c(OCC#N)nn2-c2ccccc2)[C@H](c2ccc(F)c(F)c2)C1 [Example 141, 1-(3-(cyanomethoxy)-4-methyl-1-phenyl-1H-pyrazol-5-yl)-3-((3S,4R)-4-(3,4-difluorophenyl)-1-(2-methoxyethyl)pyrrolidin-3-yl)urea]
21 | < 100 nM | COCCN1C[C@@H](NC(=O)Nc2c(C)c(OCc3ccc(OC)cc3)nn2-c2ccccc2)[C@H](c2ccc(F)c(F)c2)C1 [Example 142, 1-((3S,4R)-4-(3,4-difluoro-phenyl)-1-(2-methoxyethyl)pyrrolidin-3-yl)-3-(3-(4-methoxybenzyloxy)-4-methyl-1-phenyl-1H-pyrazol-5-yl)urea]
22 | < 100 nM | COCCN1C[C@@H](NC(=O)Nc2c(C)c(OC)nn2-c2ccccc2)[C@H](c2ccc(F)cc2)C1 [Example 143, 1-((3S,4R)-4-(4-fluorophenyl)-1-(2-methoxyethyl)pyrrolidin-3-yl)-3-(3-methoxy-4-methyl-1-phenyl-1H-pyrazol-5-yl)urea]
23 | < 100 nM | COCCN1C[C@@H](NC(=O)Nc2c(C)c(OCC(C)(C)O)nn2-c2ccccc2)[C@H](c2ccc(F)c(F)c2)C1 [Example 145, 1-((3S,4R)-4-(3,4-difluorophenyl)-1-(2-methoxyethyl)pyrrolidin-3-yl)-3-(3-(2-hydroxy-2-methylpropoxy)-4-methyl-1-phenyl-1H-pyrazol-5-yl)urea]
24 | < 100 nM | COCCN1C[C@@H](NC(=O)Nc2c3c(nn2C2CCCCC2)CCC3)[C@H](c2ccc(F)c(F)c2)C1 [Example 150, 1-(2-cyclohexyl-2,4,5,6-tetrahydrocyclopenta [c]pyrazol-3-yl)-3-((3S,4R)-4-(3,4-difluorophenyl)-1-(2-methoxyethyl)pyrrolidin-3-yl)urea]
25 | < 100 nM | COCCN1C[C@@H](NC(=O)Nc2c3c(nn2-c2ccncc2)CCC3)[C@H](c2ccccc2)C1 [Example 151, 1-((3S,4R)-1-(2-methoxyethyl)-4-phenylpyrrolidin-3-yl)-3-(2-(pyridin-4-yl)-2,4,5,6-tetrahydrocyclopenta[c]pyrazol-3-yl)urea]
26 | < 100 nM | COCCN1C[C@@H](NC(=O)Nc2c(-c3ccccc3)c(OC)nn2C)[C@H](c2ccc(F)c(F)c2)C1 [Example 156, 1-((3S,4R)-4-(3,4-difluorophenyl)-1-(2-methoxyethyl)pyrrolidin-3-yl)-3-(3-methoxy-1-methyl-4-phenyl-1H-pyrazol-5-yl)urea]
27 | < 100 nM | CCOc1nn(C)c(NC(=O)N[C@@H]2CN(CCOC)C[C@H]2c2ccc(F)c(F)c2)c1-c1ccccc1 [Example 157, 1-((3S,4R)-4-(3,4-difluorophenyl)-1-(2-methoxyethyl)pyrrolidin-3-yl)-3-(3-ethoxy-1-methyl-4-phenyl-1H-pyrazol-5-yl)urea]
28 | < 100 nM | CNC(=O)c1ccc(-c2cc(NC(=O)N[C@@H]3CN(CCOC)C[C@H]3c3ccc(F)c(F)c3)n(C)n2)cc1 [Example 163, 4-(5-(3-((3S,4R)-4-(3,4-difluorophenyl)-1-(2-methoxyethyl)pyrrolidin-3-yl)ureido)-1-methyl-1H-pyrazol-3-yl)-N-methylbenzamide]
29 | < 100 nM | COCCN1C[C@@H](NC(=O)Nc2cc(-c3ccc(CO)cc3)nn2C)[C@H](c2ccc(F)c(F)c2)C1 [Example 165, 1-((3S,4R)-4-(3,4-difluorophenyl)-1-(2-methoxyethyl)pyrrolidin-3-yl)-3-(3-(4-(hydroxymethyl)phenyl)-1-methyl-1H-pyrazol-5-yl)urea]
30 | < 100 nM | COCCN1C[C@@H](NC(=O)Nc2cc(-c3ccc(S(C)(=O)=O)cc3)nn2C)[C@H](c2ccc(F)c(F)c2)C1 [Example 166, 1-((3S,4R)-4-(3,4-difluorophenyl)-1-(2-methoxyethyl)pyrrolidin-3-yl)-3-(1-methyl-3-(4-(methylsulfonyl)phenyl)-1H-pyrazol-5-yl)urea]

Source: US10323022B2, “Pyrrolidinyl urea, pyrrolidinyl thiourea and pyrrolidinyl guanidine compounds as TrkA kinase inhibitors” (Array BioPharma Inc., priority 2011, dated 2019)
